The results in this text go back to patent publication US10927075B2, “Compositions and methods relating to the treatment of cancer, autoimmune disease, and neurodegenerative disease” (THE JACKSON LABORATORY, priority 2014, dated 2021).

“Also recorded” adds a separate entry of the source.

One data set concerns the target RAD51 (Mus musculus, UniProt Q08297). Put plainly: RAD51 nucleocytoplasmic distribution by cell fractionation and Western blotting. In kind it is cell-based. More on the design: quantitation of RAD51 expression in nuclear and cytoplasmic fractions as determined by Western Blot; endogenous in cells. As to the method: It was next tested whether C-1523 would affect RAD51 localization or DNA damage-induced focus formation. Primary mouse B-cells were treated with 100 nM C-1523 (or vehicle control) and given either 0 or 2.5Gy ionizing irradiation. Following recovery in cell culture, cells were fixed and stained for immunofluorescence imaging to measure subcellular localization of RAD51. […] To confirm the effect of C-1523 on RAD51 subcellular localization, nucleocytoplasmic distribution was independently measured following C-1523 treatment by cell fractionation and Western blotting (FIG. 13D; Supplemental FIG. 2). […] This effect on subcellular localization was specific to RAD51, as localization of NF-kB, which undergoes nuclear translocation and homing to genomic target sites after cell stimulation, was unaffected by C-1523 exposure (FIGS. 13E-13F).
For orientation: A western blot detects proteins with antibodies after separation by electrophoresis.

For the next data set, the system named is AID+/+ or AID−/− B-cells. Put plainly: Cell cycle analysis by propidium iodide staining and flow cytometry. It counts as cell-based. The settings on record: 100 nM, up to 96 hours. As to the method: AID+/+ or AID−/− B-cells were cultured with 100 nM and cell cycle profiles were determined by propidium iodide staining and flow cyotmetry at intervals up to 96 hours. Non-activated (CD40) cells were used as a negative control; activated cells treated with the microtuble poison colcemid (ACT+colcemid) were used as a positive control.
AID+/+ or AID−/− B-cells were cultured with 100 nM and cell cycle profiles were determined by propidium iodide staining and flow cyotmetry at intervals up to 96 hours. Non-activated (CD40) cells were used as a negative control; activated cells treated with the microtuble poison colcemid (ACT+colcemid) were used as a positive control. Nuclei fragmentation analysis of primary, AID expressing B-cells treated with 100 nM C-1523 was conducted (FIG. 22).

The test system of data set [1] is primary, activated WT versus AID−/− cells. Put plainly: RNASeq and Ingenuity Pathways Analysis. The settings on record: 100 nM, 60 hours after activation. In kind it is cell-based, mouse. As to the method:
FIG. 17A depicts a schematic for the fold-change (FC) analysis performed on RNASeq data from the indicated treatment groups. RNA was prepared from cells 60 hours after activation (αCD40 and IL-4) and treatment with DMSO or 100 nM C-1523. Pathway analysis was performed by Ingenuity Pathway Analysis (IPA). FIGS. 17B-17D depict the top 10 pathways for the Unique to FC1 (FIG. 17B) and FC2 (FIG. 17C) analysis and all pathways for the FC1>FC2 (DOWN) and F2>FC1 (UP) analysis (FIG. 17D). Within each bar (in white), is the ratio of genes from that pathway implicated by IPA. The dashed line indicates the 0.05 significance threshold for significant (bars crossing it) vs non-significant pathways. The mechanism of cell death is non-apoptotic and is via mitotic catastrophe.
C-1523 induces non-apoptotic cell death via non-apoptotic mitotic catastrophe. The surprising lack of apoptotic cell death induced by C-1523 prompted us to evaluate gene expression signatures to identify other potential cell death pathways. […]
RNASeq Analysis. […] The filtered and trimmed reads were then aligned to mm10 using tophat (v2.0.7). The aligned bam file was then passed through Cufflinks (v2.0.2) and reads per gene are counted using htseq-count. edgeR. […]

Another data set relates to primary B-cells (AID+). The data set can be described thus: Dose response in primary B-cells (AID+). In kind it is cell-based. The settings on record: FIG. 10. As to the method:
Dose responses for C-1523 (blue) and C-1523-1a (red) in primary B-cells (AID+) was determined (FIG. 10).

Sequence of RAD51 (Q08297 whole entry): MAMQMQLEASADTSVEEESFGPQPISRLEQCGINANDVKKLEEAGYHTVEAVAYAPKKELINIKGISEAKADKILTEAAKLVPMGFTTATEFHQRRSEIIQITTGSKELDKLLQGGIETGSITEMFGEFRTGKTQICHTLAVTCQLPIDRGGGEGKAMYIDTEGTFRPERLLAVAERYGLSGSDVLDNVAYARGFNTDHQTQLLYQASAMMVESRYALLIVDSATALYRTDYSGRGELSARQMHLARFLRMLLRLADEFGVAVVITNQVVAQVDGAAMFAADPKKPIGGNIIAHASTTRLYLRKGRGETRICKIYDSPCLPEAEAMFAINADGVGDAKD

As for `CC(=O)Nc1ccc(/C=C/c2ccc(NC(=S)NC(C)C)cc2S(=O)(=O)O)c(S(=O)(=O)O)c1` [C-1523, (E)-5-acetamido-2-(4-(3-isopropylthioureido)-2-sulfonatostyryl)benzenesulfonate], under “in vivo”, the “acute side effects relative to DIDS” value was “no increased acute side effects” and the acute toxicity result is “almost no acute toxicity”. The “tolerance to prolonged drug exposure” value (single and multiple dose) is on record as “excellent tolerance”. Besides, at RAD51, the “fraction of RAD51 localized to the nucleus, following irradiation” value was “small, but measurable reduction”. In addition, the “effect on cell cycle” value in the data set on AID+/+ or AID−/− B-cells is “minimal effect on cell cycle; also recorded: minimal differences”. Also, the “most significantly altered pathways (IPA)” value in data set [1] is reported as “did not identify any previously annotated cell death pathways”. The “concentration above which dose response is inverted” value with primary B-cells (AID+) was “above 100 nM”.
